Laboratory results taken from ChEMBL document CHEMBL1132209, “Design, synthesis, and activity of 2,6-diphenoxypyridine-derived factor Xa inhibitors” (J Med Chem, 1999).

How the values were obtained:
Prothrombin = Prothrombin (Homo sapiens, UniProt P00734); test: Compound was tested for inhibition activity against human thrombin (FIIa)
Serine protease 1 = molecular target: T1, Serine protease 1 (Bos taurus, UniProt P00760); test: Compound was tested for inhibition activity against bovine trypsin.
T1 sequence (P00760 whole entry): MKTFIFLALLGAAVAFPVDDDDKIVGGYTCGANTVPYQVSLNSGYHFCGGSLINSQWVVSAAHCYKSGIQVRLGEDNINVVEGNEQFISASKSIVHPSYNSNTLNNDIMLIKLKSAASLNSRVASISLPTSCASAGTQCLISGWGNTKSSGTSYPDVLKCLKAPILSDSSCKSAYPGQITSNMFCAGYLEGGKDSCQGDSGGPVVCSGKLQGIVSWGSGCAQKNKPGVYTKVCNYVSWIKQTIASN

Coagulation factor X = Coagulation factor X (Homo sapiens, UniProt P00742); test: Compound was tested for inhibition activity against Coagulation factor X
Chain of Coagulation factor X (P00742 41-179 limits assumed): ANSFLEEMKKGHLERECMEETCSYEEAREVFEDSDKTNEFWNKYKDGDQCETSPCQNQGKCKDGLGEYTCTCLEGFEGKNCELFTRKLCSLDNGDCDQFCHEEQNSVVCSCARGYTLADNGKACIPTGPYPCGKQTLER
Chain of Coagulation factor X (P00742 235-488 limits assumed): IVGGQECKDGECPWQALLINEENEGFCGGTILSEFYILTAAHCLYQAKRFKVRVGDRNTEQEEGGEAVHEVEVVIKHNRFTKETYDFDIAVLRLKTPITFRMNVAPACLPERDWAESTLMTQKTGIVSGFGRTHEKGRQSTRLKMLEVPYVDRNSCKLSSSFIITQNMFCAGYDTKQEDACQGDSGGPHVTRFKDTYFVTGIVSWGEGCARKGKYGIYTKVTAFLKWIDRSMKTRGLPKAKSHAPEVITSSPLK

| SMILES | Ki (Prothrombin) [nM] | Ki (Serine protease 1) [nM] | Ki (Coagulation factor X) [nM] |
| --- | --- | --- | --- |
| N=C(N)c1cccc(Oc2ccc(NC(=O)c3ccccc3)c(Oc3cccc(C(=N)N)c3)n2)c1 | 3400 | 260 | 120 |
| CNC(=O)c1ccc(Oc2cccc(C(=N)N)c2)nc1Oc1cccc(C(=N)N)c1 | > 5000 | 1400 | 230 |
| N=C(N)c1cccc(Oc2cc(C(N)=O)cc(Oc3cccc(C(=N)N)c3)n2)c1 | 6000 | 780 | 42 |
| N=C(N)c1cccc(Oc2ccc(NC(=O)NCC(N)=O)c(Oc3cccc(C(=N)N)c3)n2)c1 | > 5000 | 280 | 110 |
| N=C(N)c1cccc(Oc2ccc(NC(=O)Nc3ccccc3)c(Oc3cccc(C(=N)N)c3)n2)c1 | 3400 | 100 | 62 |
| N=C(N)c1cccc(Oc2ccnc(Oc3cccc(C(=N)N)c3)n2)c1 | > 5000 | 760 | 120 |
| N=C(N)c1cccc(Oc2cncc(Oc3cccc(C(=N)N)c3)n2)c1 | > 5000 | 970 | 51 |
| N=C(N)c1cccc(Oc2ccc(C(=O)O)c(Oc3cccc(C(=N)N)c3)n2)c1 | > 100000 | 2200 | 95 |
| N=C(N)c1cccc(Oc2ccc(N)c(Oc3cccc(C(=N)N)c3)n2)c1 | > 5000 | 1300 | 53 |
| N=C(N)c1ccccc1Oc1cccc(Oc2ccccc2C(=N)N)n1 |  |  | > 5000 |
| CCOC(=O)c1ccc(Oc2cccc(C(=N)N)c2)nc1Oc1cccc(C(=N)N)c1 | > 5000 | 920 | 190 |
| N=C(N)c1ccc(Oc2cccc(Oc3ccc(C(=N)N)cc3)c2)cc1 | 4900 | 1000 | 970 |
| N=C(N)c1cccc(Oc2ccc(C(N)=O)c(Oc3cccc(C(=N)N)c3)n2)c1 | > 5000 | 1200 | 600 |
| N=C(N)c1ccc(/C=C2\CCCC/C(=C\c3ccc(C(=N)N)cc3)C2=O)cc1 | 530 | 33 | 0.66 |
| CNC(=O)c1cc(Oc2cccc(C(=N)N)c2)nc(Oc2cccc(C(=N)N)c2)c1 | 4200 | 750 | 60 |
| CS(=O)(=O)Nc1ccc(Oc2cccc(C(=N)N)c2)nc1Oc1cccc(C(=N)N)c1 | > 5000 | 1900 | 130 |

| SMILES | Ki (Prothrombin) [nM] | Ki (Serine protease 1) [nM] | Ki (Coagulation factor X) [nM] |
| --- | --- | --- | --- |
| N=C(N)c1ccc(Oc2cc(Oc3ccc(C(=N)N)cc3)c(Cl)cc2Cl)cc1 | 2500 | 1800 | 1100 |
| CCOC(=O)c1cc(Oc2cccc(C(=N)N)c2)nc(Oc2cccc(C(=N)N)c2)c1 | 11000 | 800 | 34 |
| COc1c(F)c(Oc2cccc(C(=N)N)c2)nc(Oc2cccc(C(=N)N)c2)c1F | > 5000 | 1100 | 23 |
| CC(=O)Nc1ccc(Oc2cccc(C(=N)N)c2)nc1Oc1cccc(C(=N)N)c1 | > 5000 | 1200 | 52 |
| N=C(N)c1cccc(Oc2ccc(C(=O)NCC(N)=O)c(Oc3cccc(C(=N)N)c3)n2)c1 | > 5000 | 2000 | 690 |
| N=C(N)c1cccc(Oc2cc(Oc3ccccc3C(=N)N)ccc2N)c1 |  |  | 1100 |
| Cc1c(F)c(N(C)c2cccc(C(=N)N)c2)nc(N(C)c2cccc(C(=N)N)c2)c1F | 360 | 360 | 98 |
| N=C(N)c1cccc(Oc2ccc(C(F)(F)F)c(Oc3cccc(C(=N)N)c3)n2)c1 | > 5000 | 780 | 110 |
| Cc1c(F)c(Nc2cccc(C(=N)N)c2)nc(Oc2cccc(C(=N)N)c2)c1F | > 5000 | 3100 | 660 |
| N=C(N)c1cccc(Oc2c[nH]c(=O)c(Oc3cccc(C(=N)N)c3)n2)c1 | > 5000 | 760 | 190 |
| N=C(N)c1cccc(Oc2cc(Oc3ccccc3C(=N)N)ccc2[N+](=O)[O-])c1 |  |  | 300 |
| CNC(=O)Nc1ccc(Oc2cccc(C(=N)N)c2)nc1Oc1cccc(C(=N)N)c1 | > 5000 | 840 | 59 |
| N=C(N)c1ccc(Oc2cccc(Oc3ccccc3C(=N)N)n2)cc1 | 1200 | 1900 | 130 |
| Cc1c(F)c(Oc2cccc(C(=N)N)c2)nc(N(C)c2cccc(C(=N)N)c2)c1F | 1900 | 690 | 12 |
| CN(C)C(=O)c1ccc(Oc2cccc(C(=N)N)c2)nc1Oc1cccc(C(=N)N)c1 | > 5000 | 780 | 32 |
